Calls of active or inactive are those of the source. How the calls were made is not given here.
Tested on: CCRIS mutagenicity, Ames/micronucleus/aberration tests
Assay: CCRIS mutagenicity studies
[1] = Test System: AMES SALMONELLA TYPHIMURIUM, Strain/Indicator: TA98, Metabolic Activation: NONE, Method: STANDARD PLATE
[2] = Test System: AMES SALMONELLA TYPHIMURIUM, Strain/Indicator: TA100, Metabolic Activation: NONE, Method: STANDARD PLATE
[3] = Test System: AMES SALMONELLA TYPHIMURIUM, Strain/Indicator: TA98, Metabolic Activation: NONE, Method: PREINCUBATION
[4] = Test System: AMES SALMONELLA TYPHIMURIUM, Strain/Indicator: TA100, Metabolic Activation: NONE, Method: PREINCUBATION
[5] = Test System: AMES SALMONELLA TYPHIMURIUM, Strain/Indicator: TA1535, Metabolic Activation: NONE, Method: PREINCUBATION
[6] = Test System: AMES SALMONELLA TYPHIMURIUM, Strain/Indicator: TA98, Metabolic Activation: RAT, LIVER, S-9, AROCLOR 1254, Method: PREINCUBATION
[7] = Test System: AMES SALMONELLA TYPHIMURIUM, Strain/Indicator: TA100, Metabolic Activation: RAT, LIVER, S-9, AROCLOR 1254, Method: PREINCUBATION

Q: Which mutagenic call (Test System: E. COLI B, Strain/Indicator: H/R30R, Metabolic Activation: NONE) does the source give for `NC(=O)N(CCO)N=O` here?
A: Its mutagenic call is “active; positive”.

Q: What about the mutagenic call (Test System: E. COLI B, Strain/Indicator: HS30R, Metabolic Activation: NONE) of the same compound?
A: The mutagenic call was “active; positive”.

Q: Which mutagenic call (Test System: AMES SALMONELLA TYPHIMURIUM, Strain/Indicator: TA92, Metabolic Activation: NONE, Method: STANDARD PLATE) does the source give for `C=CCc1ccccc1N.[Cl-].[Cl-].[Pd+2]` here?
A: The mutagenic call was “inactive; negative”.

Q: What about the mutagenic call [1] of the same compound?
A: Its mutagenic call is “inactive; negative”.

Q: And the mutagenic call [2]?
A: The mutagenic call was “active; positive”.

Q: And the mutagenic call (Test System: AMES SALMONELLA TYPHIMURIUM, Strain/Indicator: TA2410, Metabolic Activation: NONE, Method: STANDARD PLATE)?
A: The mutagenic call was “active; positive”.

Q: With `ClCC(Cl)COCC(Cl)CCl` (stereo not given) as the compound, how does the mutagenic call [3] read?
A: Its mutagenic call is “inactive; negative”.

Q: What about the mutagenic call (Test System: AMES SALMONELLA TYPHIMURIUM, Strain/Indicator: TA98, Metabolic Activation: RAT LIVER S-9, AROCLOR 1254 (10%), Method: PREINCUBATION) of the same compound?
A: The mutagenic call was “active; positive”.

Q: And the mutagenic call [4]?
A: Its mutagenic call is “inactive; negative”.

Q: And the mutagenic call (Test System: AMES SALMONELLA TYPHIMURIUM, Strain/Indicator: TA100, Metabolic Activation: RAT LIVER S-9, AROCLOR 1254 (10%), Method: PREINCUBATION)?
A: Its mutagenic call is “active; positive”.

Q: What about the mutagenic call [5] of the same compound?
A: Its mutagenic call is “inactive; negative”.

Q: And the mutagenic call (Test System: AMES SALMONELLA TYPHIMURIUM, Strain/Indicator: TA1535, Metabolic Activation: RAT LIVER S-9, AROCLOR 1254 (10%), Method: PREINCUBATION)?
A: The mutagenic call was “active; positive”.

Q: And the mutagenic call (Test System: AMES SALMONELLA TYPHIMURIUM, Strain/Indicator: TA1538, Metabolic Activation: NONE, Method: PREINCUBATION)?
A: The mutagenic call was “inactive; negative”.

Q: And the mutagenic call (Test System: AMES SALMONELLA TYPHIMURIUM, Strain/Indicator: TA1538, Metabolic Activation: RAT LIVER S-9, AROCLOR 1254 (10%), Method: PREINCUBATION)?
A: Its mutagenic call is “inactive; negative”.

Q: With `N#C[S-].N#C[S-].N#C[S-].N#C[S-].N#C[S-].N#C[S-].[K+].[K+].[Pt+4]` as the compound, how does the mutagenic call [3] read?
A: The mutagenic call was “inactive; negative”.

Q: And the mutagenic call [6]?
A: Its mutagenic call is “inactive; negative”.

Q: And the mutagenic call [4]?
A: The mutagenic call was “inactive; negative”.

Q: And the mutagenic call [7]?
A: The mutagenic call was “inactive; negative”.

Q: Which results are given for `c1ccc2sc(SSc3nc4ccccc4s3)nc2c1`?
A: mutagenic call (Test System: AMES SALMONELLA TYPHIMURIUM, Strain/Indicator: TA97, Metabolic Activation: HAMSTER, LIVER, S-9, AROCLOR 1254 (10%), Method: PREINCUBATION): inactive; negative; mutagenic call (Test System: AMES SALMONELLA TYPHIMURIUM, Strain/Indicator: TA97, Metabolic Activation: NONE, Method: PREINCUBATION): active; positive; mutagenic call (Test System: AMES SALMONELLA TYPHIMURIUM, Strain/Indicator: TA97, Metabolic Activation: RAT, LIVER, S-9, AROCLOR 1254 (10%), Method: PREINCUBATION): inactive; negative; mutagenic call (Test System: AMES SALMONELLA TYPHIMURIUM, Strain/Indicator: TA98, Metabolic Activation: HAMSTER, LIVER, S-9, AROCLOR 1254 (10 OR 30%), Method: PREINCUBATION): inactive; negative; mutagenic call (Test System: AMES SALMONELLA TYPHIMURIUM, Strain/Indicator: TA98, Metabolic Activation: RAT, LIVER, S-9, AROCLOR 1254 (10 OR 30%), Method: PREINCUBATION): inactive; negative; mutagenic call (Test System: AMES SALMONELLA TYPHIMURIUM, Strain/Indicator: TA100, Metabolic Activation: HAMSTER, LIVER, S-9, AROCLOR 1254 (10 OR 30%), Method: PREINCUBATION): inactive; negative; mutagenic call [4]: inactive; negative; mutagenic call (Test System: AMES SALMONELLA TYPHIMURIUM, Strain/Indicator: TA100, Metabolic Activation: RAT, LIVER, S-9, AROCLOR 1254 (10 OR 30%), Method: PREINCUBATION): active; positive; mutagenic call (Test System: AMES SALMONELLA TYPHIMURIUM, Strain/Indicator: TA1535, Metabolic Activation: HAMSTER, LIVER, S-9, AROCLOR 1254 (10%), Method: PREINCUBATION): inactive; negative; mutagenic call [5]: inactive; negative; mutagenic call (Test System: AMES SALMONELLA TYPHIMURIUM, Strain/Indicator: TA1535, Metabolic Activation: RAT, LIVER, S-9, AROCLOR 1254 (10%), Method: PREINCUBATION): inactive; negative

Q: With `CCn1c(N)nc2c3nc(C)cnc3ccc21` as the compound, how does the mutagenic call [6] read?
A: The mutagenic call was “active; positive”.

Q: What does the source list for `CNc1ccc2ncc(C)nc2c1N`?
A: mutagenic call [3]: inactive; negative; mutagenic call [6]: inactive; negative; mutagenic call [4]: inactive; negative; mutagenic call [7]: inactive; negative

Q: What does the source list for `N[C@@H](CCC(=O)N[C@@H](CS)C(=O)NCC(=O)O)C(=O)O`?
A: mutagenic call (Test System: AMES SALMONELLA TYPHIMURIUM, Strain/Indicator: TA92, Metabolic Activation: RAT, KIDNEY, S-9, Method: PREINCUBATION): active; positive; mutagenic call (Test System: AMES SALMONELLA TYPHIMURIUM, Strain/Indicator: TA92, Metabolic Activation: RAT, KIDNEY, S-9, Method: STANDARD PLATE): active; positive; mutagenic call (Test System: AMES SALMONELLA TYPHIMURIUM, Strain/Indicator: TA97, Metabolic Activation: RAT, KIDNEY, S-9, Method: PREINCUBATION): active; positive; mutagenic call (Test System: AMES SALMONELLA TYPHIMURIUM, Strain/Indicator: TA97, Metabolic Activation: RAT, KIDNEY, S-9, Method: STANDARD PLATE): active; positive; mutagenic call [4]: inactive; negative; mutagenic call (Test System: AMES SALMONELLA TYPHIMURIUM, Strain/Indicator: TA100, Metabolic Activation: RAT, KIDNEY, S-9, Method: PREINCUBATION): active; positive; mutagenic call (Test System: AMES SALMONELLA TYPHIMURIUM, Strain/Indicator: TA100, Metabolic Activation: RAT, KIDNEY, S-9, Method: STANDARD PLATE): active; positive; mutagenic call (Test System: AMES SALMONELLA TYPHIMURIUM, Strain/Indicator: TA102, Metabolic Activation: NONE, Method: PREINCUBATION): inactive; negative; mutagenic call (Test System: AMES SALMONELLA TYPHIMURIUM, Strain/Indicator: TA102, Metabolic Activation: NONE, Method: STANDARD PLATE): inactive; negative; mutagenic call (Test System: AMES SALMONELLA TYPHIMURIUM, Strain/Indicator: TA102, Metabolic Activation: RAT, KIDNEY, S-9, Method: PREINCUBATION): active; positive; mutagenic call (Test System: AMES SALMONELLA TYPHIMURIUM, Strain/Indicator: TA104, Metabolic Activation: RAT, KIDNEY, S-9, Method: PREINCUBATION): active; positive; mutagenic call (Test System: AMES SALMONELLA TYPHIMURIUM, Strain/Indicator: TA104, Metabolic Activation: RAT, KIDNEY, S-9, Method: STANDARD PLATE): inactive; negative; mutagenic call (Test System: AMES SALMONELLA TYPHIMURIUM, Strain/Indicator: TA1535, Metabolic Activation: RAT, KIDNEY, S-9, Method: PREINCUBATION): inactive; negative; mutagenic call (Test System: AMES SALMONELLA TYPHIMURIUM, Strain/Indicator: TA1537, Metabolic Activation: RAT, KIDNEY, S-9, Method: PREINCUBATION): inactive; negative; mutagenic call (Test System: Mouse lymphoma, Strain/Indicator: L5178Y (tk+/tk-), Metabolic Activation: None, Method: Suspension/plate): active; equivocal (previous evaluation positive); mutagenic call (Test System: Mouse lymphoma, Strain/Indicator: L5178Y (tk+/tk-), Metabolic Activation: Rat, Liver, S-9, Aroclor 1254, Method: Suspension/plate): inactive; negative

Q: With `COc1c(O)cc2c3c1-c1ccccc1C[C@H]3N(C)CC2` as the compound, how does the mutagenic call (Test System: AMES SALMONELLA TYPHIMURIUM, Strain/Indicator: TA98, Metabolic Activation: RAT, LIVER, S-9, PHENOBARBITAL AND BETA-NAPHTHOFLAVONE, Method: PREINCUBATION) read?
A: Its mutagenic call is “active; positive”.

Q: And the mutagenic call (Test System: AMES SALMONELLA TYPHIMURIUM, Strain/Indicator: TA100, Metabolic Activation: RAT, LIVER, S-9, PHENOBARBITAL AND BETA-NAPHTHOFLAVONE, Method: PREINCUBATION)?
A: Its mutagenic call is “active; positive”.

Q: With `O=[N+]([O-])c1ccccc1SSC(F)=C(Cl)Cl` as the compound, how does the mutagenic call (Test System: AMES SALMONELLA TYPHIMURIUM, Strain/Indicator: TA100(DNP6), Metabolic Activation: NONE, Method: PREINCUBATION) read?
A: The mutagenic call was “active; positive”.

Q: And the mutagenic call (Test System: AMES SALMONELLA TYPHIMURIUM, Strain/Indicator: TA100(NR), Metabolic Activation: NONE, Method: PREINCUBATION)?
A: Its mutagenic call is “active; positive”.

Q: Which results are given for `Cc1c([N+](=O)[O-])cnc2c1nc1c(C)cccn12`?
A: mutagenic call [1]: active; positive; mutagenic call (Test System: AMES SALMONELLA TYPHIMURIUM, Strain/Indicator: TA98, Metabolic Activation: RAT, LIVER, CYTOSOL, AROCLOR 1254, Method: STANDARD PLATE): active; positive; mutagenic call (Test System: AMES SALMONELLA TYPHIMURIUM, Strain/Indicator: TA98, Metabolic Activation: RAT, LIVER, MICROSOMES, AROCLOR 1254, Method: STANDARD PLATE): active; positive; mutagenic call (Test System: AMES SALMONELLA TYPHIMURIUM, Strain/Indicator: TA98, Metabolic Activation: RAT, LIVER, S-9, AROCLOR 1254, Method: STANDARD PLATE): active; positive

Q: How did the mutagenic call [1] turn out when `O=C1NC(c2ccc([N+](=O)[O-])s2)Nc2ccccc21` (stereo not given) was run?
A: The mutagenic call was “active; positive”.

Q: And the mutagenic call [2]?
A: The mutagenic call was “active; positive”.

From PubChem BioAssay AID1259407 (Chemical Carcinogenesis Research Information System (CCRIS), 2018)
